In ChEMBL document CHEMBL1149418, “Intermolecular interactions in the crystal structures of potential HIV-1 integrase inhibitors” (Bioorg Med Chem Lett, 2006):

Molecular target: Human immunodeficiency virus type 1 integrase (Human immunodeficiency virus 1, UniProt Q7ZJM1)
Test: Antiviral activity against HIV1 integrase

Sequence of Human immunodeficiency virus type 1 integrase (Q7ZJM1 whole entry): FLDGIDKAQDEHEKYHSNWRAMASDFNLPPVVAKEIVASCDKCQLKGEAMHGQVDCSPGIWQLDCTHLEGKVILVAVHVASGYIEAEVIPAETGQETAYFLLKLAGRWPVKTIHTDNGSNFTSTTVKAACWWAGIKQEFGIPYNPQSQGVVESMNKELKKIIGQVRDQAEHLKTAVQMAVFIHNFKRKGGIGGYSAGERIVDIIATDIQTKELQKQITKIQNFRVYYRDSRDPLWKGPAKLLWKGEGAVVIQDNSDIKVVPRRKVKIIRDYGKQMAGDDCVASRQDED

SMILES	IC50 [µM]
Oc1cccc2ccc(/C=C/c3cccc(Cl)c3)nc12	230
COC(Nc1cc(Cl)c([N+](=O)[O-])cc1Cl)c1ccc2cccc(O)c2n1 (centres undefined)	230
O=C(O)c1ccc2ccc(/C=C/c3cccc(Cl)c3)nc2c1	230
Cc1ccc2c(N=O)ccc(O)c2n1	> 333
